These results are taken from the OligoGym collection.

Holding throughout (settings): ASO
The target of series [1] is PLA2G4A.
For series [2], the target named is SMAD1.
The target in series [3] is SMAD3.

These antisense oligonucleotides have a phosphorothioate backbone; sugars and methylation of C are not fully specified. Bounds are passed on as bounds.
Further: test concentration or dose not given here.

The sequence AAACGCCCAAAACTCTGT came in with a remaining target (mRNA or protein) (fraction of control) in series [1] of at least 1.
Same read-out and setting: under AAAGAGGTAAAGGGCATT stands at least 1.
On to AAAGATGAACTCCTTTTC, for which the remaining target (mRNA or protein) (fraction of control) in series [2] came out at 0.65.
In series [1], AAATAAGTCGGGAGCCAT returned a remaining target (mRNA or protein) (fraction of control) of at least 1.
In turn, AAATCGTAGGTCTGGGCA had a remaining target (mRNA or protein) (fraction of control) in series [1] of at least 1.
As for AAATGACATGAGGCAGTC, the remaining target (mRNA or protein) (fraction of control) in series [2] was 0.54.
Consider AAGGGATACGGCAGGTTA, for which the remaining target (mRNA or protein) (fraction of control) in series [1] was at least 1.
The sequence AAGGGCTTCCTGGGTCTG showed a remaining target (mRNA or protein) (fraction of control) in series [2] of 0.53.
Sequence AAGTCGGGAGCCATAAAA returned a remaining target (mRNA or protein) (fraction of control) in series [1] of 0.87.
In series [3], ACAGGCGGCAGTAGATGA registered a remaining target (mRNA or protein) (fraction of control) of at least 1.
Consider ACAGTAGTAGGATGAAAT, for which the remaining target (mRNA or protein) (fraction of control) in series [2] was found to be 0.41.
The sequence ACATTCATAATGACAGCA returned a remaining target (mRNA or protein) (fraction of control) in series [2] of 0.59.
ACATTCGGGTCAACTGGT showed a remaining target (mRNA or protein) (fraction of control) in series [3] of 0.48.
As for ACCAGAAACGCCCAAAAC, in series [1], the remaining target (mRNA or protein) (fraction of control) was 0.21.
The sequence AGAACTGGTGTCTCTACT yielded a remaining target (mRNA or protein) (fraction of control) in series [3] of 0.51.
Still for that read-out and setting: in the case of AGACCAAATGCCATCCCA it was 0.18.
For AGAGGTAAAGGGCATTGT, in series [1], the remaining target (mRNA or protein) (fraction of control) is at least 1.
In turn, AGCACTCCTTCAGCCCTT registered a remaining target (mRNA or protein) (fraction of control) in series [1] of 0.29.
AGCATTCCAGTGGTTTTA came in with a remaining target (mRNA or protein) (fraction of control) in series [2] of 0.31.
The sequence AGCCCACTGTCCACTACA had a remaining target (mRNA or protein) (fraction of control) in series [1] of 0.2.
The same measure, in the same setting: in the case of AGGCCATTATCATACGAT it was at least 1.
On to AGTGAGGAAACGGGTGGC, for which, in series [2], the remaining target (mRNA or protein) (fraction of control) amounted to 0.28.
For the sequence AGTGGATGATGGTTGGGC, the remaining target (mRNA or protein) (fraction of control) in series [1] was at least 1.
As for AGTGGCGTTGAGTGGCAT, in series [2], the remaining target (mRNA or protein) (fraction of control) was found to be 0.75.
For the sequence ATAAGTCGGGAGCCATAA, in series [1], the remaining target (mRNA or protein) (fraction of control) was 0.98.
The same measure, in the same setting: under ATAGCACTCCTTCAGCCC stands at least 1; under ATCAAGGGATACGGCAGG, 0.51.
Sequence ATGCAAAAGGACAGCAGA showed a remaining target (mRNA or protein) (fraction of control) in series [2] of 0.57.
Turning to ATGTGAGCCCACTGTCCA, the remaining target (mRNA or protein) (fraction of control) in series [1] is at least 1.
On to ATTGATCTGGTCGCGCTG, for which the remaining target (mRNA or protein) (fraction of control) in series [2] turned out to be 0.69.
In series [1], CACTCCTTCAGCCCTTCC had a remaining target (mRNA or protein) (fraction of control) of at least 1.
CACTGCCCCAGACACCCA returned a remaining target (mRNA or protein) (fraction of control) in series [1] of at least 1.
CAGAAACGCCCAAAACTC came in with a remaining target (mRNA or protein) (fraction of control) in series [1] of 0.43.
In series [2], CAGATGAAATAGGATTAT yielded a remaining target (mRNA or protein) (fraction of control) of 0.55.
For the sequence CAGCCTGCCATCCAGAGA, in series [2], the remaining target (mRNA or protein) (fraction of control) was determined as 0.46.
On to CATAAGCAACCGCCTGAA, for which, in series [2], the remaining target (mRNA or protein) (fraction of control) is 0.57.
In series [1], CATTTTAGCCCACTTTTC came in with a remaining target (mRNA or protein) (fraction of control) of at least 1.
Regarding CCAAATAAGTCGGGAGCC, the remaining target (mRNA or protein) (fraction of control) in series [1] is 0.09.
For CCAAGTTATTATGTGCTG, the remaining target (mRNA or protein) (fraction of control) in series [3] was at least 1.
On to CCAGTCAGCACCGGGTTG, for which the remaining target (mRNA or protein) (fraction of control) in series [2] came to 0.8.
In series [3], CCATTTCTCCTCCTGCCC showed a remaining target (mRNA or protein) (fraction of control) of 0.62.
CCCACACGATTGTTGAGC had a remaining target (mRNA or protein) (fraction of control) in series [2] of 0.35.
CCCCACCTGAACCCAATA registered a remaining target (mRNA or protein) (fraction of control) in series [1] of at least 1.
CCCCTACCATACTTGATG showed a remaining target (mRNA or protein) (fraction of control) in series [3] of 0.38.
Same read-out and setting: under CCCCTCCGATGTAGTAGA stands 0.54.
CCCCTTTGTCACTTTGGT gave a remaining target (mRNA or protein) (fraction of control) in series [1] of 0.33.
Take CCGCCCGCCTGCTTTCTC: the remaining target (mRNA or protein) (fraction of control) in series [2] was 0.12.
The same measure, in the same setting: under CCTCAGCTGCCAATACCC stands 0.47.
The same measure, in the same setting: under CCTCCACTCCTCAGCTGC stands 0.5.
On to CCTCCCCATCCCAAGTCT, for which the remaining target (mRNA or protein) (fraction of control) in series [3] amounted to 0.59.
CCTGTTGACATTGGAGAG registered a remaining target (mRNA or protein) (fraction of control) in series [3] of 0.72.
Still for that read-out and setting: under CGATGTAGTAGAGCCGCA stands 0.42; under CTCCCCAGCCTTTGACGA, 0.54.
The sequence CTCCTTCAGCCCTTCCCG yielded a remaining target (mRNA or protein) (fraction of control) in series [1] of at least 1.
In turn, CTCTCTGGTAGTGGTAGG had a remaining target (mRNA or protein) (fraction of control) in series [3] of 0.8.
The same measure, in the same setting: under CTCTGGGTTTGCTCGTGT stands 0.56.
As to CTGAAGATCGGGCCAGCG, the remaining target (mRNA or protein) (fraction of control) in series [2] was 0.52.
The sequence CTTCCGATGTGTCTCCGT displayed a remaining target (mRNA or protein) (fraction of control) in series [3] of 0.39.
For the sequence CTTGTTCATTTTAGCCCA, the remaining target (mRNA or protein) (fraction of control) in series [1] is at least 1.
